According to patent publication US20240197652A1, “KETAMINE IN THE TREATMENT OF […]” (Awakn LS Europe Holdings Limited, priority 2021, published 2024):

How the values were obtained:
Format in all cases: in vivo, human
[1] = Plasma ketamine, HNK and norketamine levels, gaming disorder subjects (Example 9); conditions: analyte = label; for peak plasma concentration: 100 mg racemic ketamine sublingual; for time of peak plasma concentration: post-administration of 100 mg racemic ketamine sublingual
Method: A study was completed on ketamine to treat gaming disorder. Subjects were assessed for gaming disorder using the Internet Gaming Disorder Scale (IGDS) and were included if they received an IGDS score greater than 3. Three subjects in total were included (IG1-IG3). All three were administered sublingual lozenges comprising 100 mg of racemic ketamine.
Blood samples were collected from all three subjects. Blood samples were analysed to determine ketamine and ketamine metabolite levels. Assessments were conducted as below.
The treatment protocol commenced in the same manner as disclosed in the ketamine in subjects with gambling disorder study completed in EXAMPLE 7, with the exceptions as follow: No behavioural tasks were completed. Self-report measures completed during EXAMPLE 9 included Social Phobia Inventory (SPIN), the Craving for Gaming Questionnaire (CGQ), and Generalised Anxiety Disorder-7 (GAD-7) the Sensitivity to Reward and Punishment Scale, and the Childhood Trauma Questionnaire, the Morningness-Eveningness Questionnaire (MEQ).

[2] = system: subjects with gambling disorder; test: Cue reactivity task: picture pleasure rating and gambling desire rating, Example 7
[3] = system: subjects with gambling disorder; test: Adverse events, Ketamine Side Effect Tool (KSET), Example 7; conditions: five gambling disorder subjects; 100 mg racemic ketamine sublingual
Method: Adverse events were assessed with the Ketamine Side Effect Tool (KSET).

[4] = system: total plasma ghrelin; test: Total plasma ghrelin, Example 8; conditions: for total plasma ghrelin at 90 minutes post-lozenge / % change in total ghrelin: 100 mg racemic ketamine sublingual; for total plasma ghrelin, pre-administration: baseline before 100 mg racemic ketamine sublingual; for % change in total ghrelin: pre-administration to 90 minutes post-lozenge
Method: (§1) Blood samples were collected from all three subjects. Blood samples were analysed to determine ketamine and ketamine metabolite levels, as well as the hormones leptin and ghrelin. Self-report measures were conducted.
(§2) The treatment protocol commenced in substantially the same way as disclosed in the ketamine in subjects with gambling disorder study completed in EXAMPLE 7, with the exceptions outlined as follows: No behavioural tasks were completed. Blood samples collected every 10 minutes from the time of administration to 90 minutes post-administration were additionally analysed for leptin and ghrelin. Self-report measures included the Binge Eating Scale, the Adult Attachment Interview (AAI), a 20 question interview about the subject's recollections of their childhood (Sykes and Turner, 2015); the Childhood Trauma Questionnaire; the Morningness-Eveningness Questionnaire (MEQ), a 19-item questionnaire designed to assess when a respondent prefers to wake up or start sleep (American Thoracic Society, 2022); the DSM-5 Binge Eating Disorder diagnostic criteria; and the SPSRQ.
(§3) Changes in ghrelin and leptin were measured. Ghrelin stimulates appetite and food intake, increases fat deposition, and releases growth hormone. Obese binge eating disorder subjects often have reduced plasma ghrelin, possibly due to the downregulation of ghrelin from excess eating or body fat (Atalayer et al. 2013). Leptin forms a negative feedback loop between fat cells and the hypothalamus, wherein leptin secretion signals the hypothalamus to inhibit food intake and increase energy expenditure. Increased leptin may aid in reducing appetite cravings associated with binge eating disorder (Obradovic et al. 2021).

[5] = system: total plasma leptin; test: Total plasma leptin, Example 8; conditions: for total plasma leptin at 90 minutes post-lozenge / % change in total leptin: 100 mg racemic ketamine sublingual; for total plasma leptin, pre-administration: baseline before 100 mg racemic ketamine sublingual; for % change in total leptin: pre-administration to 90 minutes post-lozenge
Method: as §1, §2, §3

[6] = system: subjects with CSBD; test: Sensitivity to reward (SPSRQ), Example 10; conditions: for Sensitivity to Reward at 2-week follow up: after 100 mg racemic ketamine sublingual; for Sensitivity to Reward, pre-administration: baseline before 100 mg racemic ketamine sublingual; for % change in Sensitivity to Reward: pre-administration to 2-week follow up, 100 mg racemic ketamine sublingual
Method: Reward sensitivity was assessed using the SPSRQ. Behavioural tasks, EEG measurements, and subjective experience assessments were also completed.
A study was completed on the use of ketamine to treat CSBD. Subjects were assessed for CSBD using the Problematic Pornography Use Scale (PPUS) and were included if they received an PPUS score greater than 3. Three subjects in total were included (CSB1-CSB3). All three were administered sublingual lozenges comprising 100 mg of racemic ketamine.
The treatment protocol commenced in the same way as disclosed in the ketamine in subjects with gambling disorder study completed in EXAMPLE 7, with the exceptions outlined as follows: No behavioural tasks were completed. Self-report measures completed during EXAMPLE 10 included the Emotional Intimacy Measure, the Childhood Trauma Questionnaire, the Generalised Anxiety Disorder-7 (GAD-7), the Morningness-Eveningness Questionnaire (MEQ), and the Problematic Pornography Questionnaire (PPQ), the Acceptance and Action Questionnaire, and the Psychological and Interpersonal Relationship Scales (PAIRS).

[7] = system: subjects with CSBD; test: Adverse events, KSET, Example 10; conditions: three CSBD subjects; 100 mg racemic ketamine sublingual
[8] = baseline before 100 mg racemic ketamine sublingual
[9] = one-week follow up after 100 mg racemic ketamine sublingual
[10] = two-week follow up after 100 mg racemic ketamine sublingual

NC1(c2ccccc2Cl)CCCCC1=O (racemic) [Norketamine, (R,S)-norketamine]
peak plasma concentration ([1]; subject IG1): about 627 ng/ml
time of peak plasma concentration ([1]; subject IG1): 70 min
peak plasma concentration ([1]; subject IG2): about 1,040 ng/ml
time of peak plasma concentration ([1]; subject IG2): 50 min
peak plasma concentration ([1]; subject IG3): about 1,116 ng/mL
time of peak plasma concentration ([1]; subject IG3): 60 min

N[C@@]1(c2ccccc2Cl)CCC[C@@H](O)C1=O [HNK, (2S,6S;2R,6R)-hydroxynorketamine]
peak plasma concentration ([1]; subject IG1): about 287 ng/ml
time of peak plasma concentration ([1]; subject IG1): 90 min
peak plasma concentration ([1]; subject IG2): about 279 ng/ml
time of peak plasma concentration ([1]; subject IG2): 90 min
peak plasma concentration ([1]; subject IG3): about 407 ng/mL
time of peak plasma concentration ([1]; subject IG3): 60 min

CNC1(c2ccccc2Cl)CCCCC1=O (racemic) [ketamine, 2-(2-chlorophenyl)-2-(methylamino)-cyclohexanone]
gambling desire rating, mean [2, 8]: 2.25
picture pleasure rating, mean [2, 8]: 3.25
gambling desire rating, mean [2, 9]: −0.25
picture pleasure rating, mean [2, 9]: 1.33
gambling desire rating, mean [2, 10]: −0.25
picture pleasure rating, mean [2, 10]: −0.83
course of adverse events [3]: All adverse events were transient, and resolved two hours post-lozenge
overall tolerability [3]: well-tolerated, with no drop-outs
unexpected adverse reactions (KSET) [3]: No unexpected adverse reactions were observed
total plasma ghrelin at 90 minutes post-lozenge ([4]; subject BE1): 310 pg/mL
total plasma ghrelin, pre-administration ([4]; subject BE1): 254 pg/mL
% change in total ghrelin ([4]; subject BE1): +22.05%
total plasma ghrelin at 90 minutes post-lozenge ([4]; subject BE2): 231 pg/mL
total plasma ghrelin, pre-administration ([4]; subject BE2): 198 pg/mL
% change in total ghrelin ([4]; subject BE2): +16.67%
total plasma ghrelin at 90 minutes post-lozenge ([4]; subject BE3): 274 pg/mL
total plasma ghrelin, pre-administration ([4]; subject BE3): 291 pg/mL
% change in total ghrelin ([4]; subject BE3): −5.84%
total plasma leptin at 90 minutes post-lozenge ([5]; subject BE1): 9.11 ng/mL
total plasma leptin, pre-administration ([5]; subject BE1): 7.10 ng/mL
% change in total leptin ([5]; subject BE1): +28.31%
total plasma leptin at 90 minutes post-lozenge ([5]; subject BE2): 27.98 ng/mL
total plasma leptin, pre-administration ([5]; subject BE2): 21.88 ng/mL
% change in total leptin ([5]; subject BE2): +27.88%
total plasma leptin at 90 minutes post-lozenge ([5]; subject BE3): 11.23 ng/mL
total plasma leptin, pre-administration ([5]; subject BE3): 12.36 ng/mL
% change in total leptin ([5]; subject BE3): −9.14%
peak plasma concentration ([1]; subject IG1): about 390 ng/ml
time of peak plasma concentration ([1]; subject IG1): 50 min
peak plasma concentration ([1]; subject IG2): about 301 ng/ml
time of peak plasma concentration ([1]; subject IG2): 50 min
peak plasma concentration ([1]; subject IG3): about 670 ng/mL
time of peak plasma concentration ([1]; subject IG3): 50 min
Sensitivity to Reward at 2-week follow up ([6]; subject CSB1): 9
Sensitivity to Reward, pre-administration ([6]; subject CSB1): 10
% change in Sensitivity to Reward ([6]; subject CSB1): −10%
Sensitivity to Reward at 2-week follow up ([6]; subject CSB2): 15
Sensitivity to Reward, pre-administration ([6]; subject CSB2): 15
Sensitivity to Reward at 2-week follow up ([6]; subject CSB3): 9
Sensitivity to Reward, pre-administration ([6]; subject CSB3): 17
% change in Sensitivity to Reward ([6]; subject CSB3): −47.06%
course of adverse events [7]: All adverse events were transient, and resolved two hours post-lozenge
overall tolerability [7]: well-tolerated, with no drop-outs
unexpected adverse reactions (KSET) [7]: No unexpected adverse reactions were observed
